Measured values as given in patent US7605265B2, “Heterodimers and methods of using them” (priority 2007, dated 2009).

Tested on: transient focal ischemia
Test: MCAO (middle carotid artery occlusion model), transient focal ischemia
Type: in vivo, mice
Details: for infarct area (in words): FIG. 5g; for infarct volume (in words): FIG. 5h; for neurological deficits (in words): administration 6 hours after ischemia
Procedure: The MCAO (middle carotid artery occlusion model) was performed to investigate the protective effects of compounds A, B and C on the brain when the brain was exposed to transient focal ischemia (lack of oxygen), emulating brain conditions during a stroke. […] The ability of the novel compounds to protect against the appearance of these neurological deficits was examined using a four-point scale neurological scoring system (Mann Whitney U test). For each of the following observable signs, the distribution of test subjects was noted (with and without treatment with the invention after ischemia): (0) no observable neurological deficits (normal); (1) failure to extend the left forepaw fully (mild); (2) circling to the contralateral side (moderate); and (3) loss of walking and righting reflex (severe). • (ii) The brains of the test subjects slices were sectioned into five pieces and the infarct area and volume of each slice was measured. The % of infarct area in test subjects treated with the invention after ischemia was compared to that of the control group for each brain slice. • (iii) Hemispheric brain swelling and infarct volume (the area of dead tissue caused by inadequate blood supply) was measured for test subjects treated with the invention after ischemia, and compared to that of the control group.
The compounds were administered 5 minutes after ischemia, 5 minutes after reperfusion, or 6 hours after ischemia. FIGS. 5a to 5f show results for the heterodimers compound B, C or A respectively, when administered 5 minutes after ischemia or reperfusion. FIGS. 5g and 5h show the results when the novel heterodimers were administered 6 hours after ischemia.
Compound B was administered at 5 minutes after ischemia. Distribution of neurological scores based on a four-point scale neurological scoring system (Mann Whitney U test): (0) no observable neurological deficits (normal); (1) failure to extend the left forepaw fully (mild); (2) circling to the contralateral side (moderate); and (3) loss of walking and righting reflex (severe).
The brain was sectioned into five pieces, each 2-mm thick. The infarct area of each posterior surface was analyzed by an image analysis program. The percentage of infarct area and volume were calculated and presented as the percentage of the infarct area of the contralateral hemisphere to eliminate the contribution of edema to the ischemic lesion.
The infarct area of each posterior surface was analyzed by an image analysis program. Hemispheric brain swelling was calculated as follows (ipsilateral volume−contralateral volume)/contralateral volume×100%.

[1] = 0.005 μg/kg, 6 hours after ischemia
[2] = 0.05 μg/kg, 5 minutes after ischemia
[3] = 0.05 μg/kg, 6 hours after ischemia
[4] = 0.5 μg/kg, 5 minutes after ischemia
[5] = 0.005 μg/kg, 5 minutes after reperfusion
[6] = 0.05 μg/kg, 5 minutes after reperfusion

O=c1ccc2c([nH]1)CCCC2NCCCCCCCNc1c2c(nc3cc(Cl)ccc13)CCCC2 (stereo not shown) [Compound B]
% Infarct area in brain slice # 1 [1]: 11.9 ± 4.3%
% Infarct area in brain slice # 2 [1]: 43.4 ± 6.5%
% Infarct area in brain slice # 3 [1]: 40.1 ± 4.7 %
% Infarct area in brain slice # 4 [1]: 24.3 ± 7.5%
% Infarct area in brain slice # 5 [1]: −1.4 ± 1.0%
Hemispheric swelling (%) [1]: 7.3 ± 1.2%
Infarct volume (%) [1]: 28.5 ± 3.4%
Observed Neurological Deficits Mean ± SEM [1]: 1.2 ± 0.2
Observed Neurological Deficits, score 0 (number of animals) [1]: 0
Observed Neurological Deficits, score 1 (number of animals) [1]: 7
Observed Neurological Deficits, score 2 (number of animals) [1]: 2
Observed Neurological Deficits, score 3 (number of animals) [1]: 0
n (dead/total): dead/total [1]: 9 (0/9)
% Infarct area in brain slice # 1 [2]: 11.5%
% Infarct area in brain slice # 2 [2]: 42.6 ± 4.8 %
% Infarct area in brain slice # 3 [2]: 40.0 ± 6.6 %
% Infarct area in brain slice # 4 [2]: 34.0%
% Infarct area in brain slice # 5 [2]: 0.1%
Hemispheric swelling (%) [2]: 6.5 ± 1.5%
Infarct volume (%) [2]: 31.2 ± 4.6 %
Observed Neurological Deficits Mean ± SEM [2]: 1.1 ± 0.1
Observed Neurological Deficits, score 0 (number of animals) [2]: 0
Observed Neurological Deficits, score 1 (number of animals) [2]: 8
Observed Neurological Deficits, score 2 (number of animals) [2]: 1
Observed Neurological Deficits, score 3 (number of animals) [2]: 0
n (dead/total): dead/total [2]: 9 (2/11)
infarct area in brain slices (in words) (0.05 μg/kg, 5 minutes after ischemia, FIG. 5a): reduced the infarct area in brain slices #2 and #3
% Infarct area in brain slice # 1 [3]: 15.7 ± 2.9%
% Infarct area in brain slice # 2 [3]: 50.5 ± 7.2%
% Infarct area in brain slice # 3 [3]: 41.7 ± 6.0%
% Infarct area in brain slice # 4 [3]: 25.2 ± 8.2%
% Infarct area in brain slice # 5 [3]: −1.3 ± 1.7%
Hemispheric swelling (%) [3]: 7.0 ± 1.5%
Infarct volume (%) [3]: 31.1 ± 4.8%
Observed Neurological Deficits Mean ± SEM [3]: 1.4 ± 0.2
Observed Neurological Deficits, score 0 (number of animals) [3]: 0
Observed Neurological Deficits, score 1 (number of animals) [3]: 5
Observed Neurological Deficits, score 2 (number of animals) [3]: 3
Observed Neurological Deficits, score 3 (number of animals) [3]: 0
n (dead/total): dead/total [3]: 8 (3/12)
Observed Neurological Deficits Mean ± SEM [4]: 1.5 ± 0.3
Observed Neurological Deficits, score 0 (number of animals) [4]: 0
Observed Neurological Deficits, score 1 (number of animals) [4]: 2
Observed Neurological Deficits, score 2 (number of animals) [4]: 2
Observed Neurological Deficits, score 3 (number of animals) [4]: 0
n (dead/total): dead/total [4]: 4 (4/8)
infarct volume and hemispheric swelling (in words) (5 minutes after ischemia (compound A: 0.05 and 0.1 mg/kg), FIG. 5b, 5f): reduces infarct volume but not hemispheric swelling
infarct area (in words) (6 hours after ischemia): improvement in the infarct area
infarct volume (in words) (6 hours after ischemia): decreases infarct volume
neurological deficits induced by ischemia (in words) (administered 5 minutes after ischemia): reduced neurological deficits induced by ischemia
neurological deficits (in words): reduced neurological deficits

O=c1ccc2c([nH]1)CCCC2NCCCCCCCCNc1c2c(nc3cc(Cl)ccc13)CCCC2 (stereo not shown) [Compound C]
% Infarct area in brain slice # 1 [5]: 18.8 ± 3.3%
% Infarct area in brain slice # 2 [5]: 47.8 ± 3.0%
% Infarct area in brain slice # 3 [5]: 45.4 ± 1.8%
% Infarct area in brain slice # 4 [5]: 18.5 ± 3.8 %
% Infarct area in brain slice # 5 [5]: 0.6 ± 0.5%
Hemispheric swelling (%) [5]: 7.1 ± 1.0 %
Infarct volume (%) [5]: 30.1 ± 1.5 %
Observed Neurological Deficits Mean ± SEM [5]: 1.0 ± 0.0
Observed Neurological Deficits, score 0 (number of animals) [5]: 0
Observed Neurological Deficits, score 1 (number of animals) [5]: 9
Observed Neurological Deficits, score 2 (number of animals) [5]: 0
Observed Neurological Deficits, score 3 (number of animals) [5]: 0
n (dead/total): dead/total [5]: 9 (1/10)
% Infarct area in brain slice # 1 [1]: 15.9 ± 4.0%
% Infarct area in brain slice # 2 [1]: 40.2 ± 7.9%
% Infarct area in brain slice # 3 [1]: 35.5 ± 5.3 %
% Infarct area in brain slice # 4 [1]: 12.5 ± 4.9 %
% Infarct area in brain slice # 5 [1]: −0.8 ± 0.8%
Hemispheric swelling (%) [1]: 6.2 ± 1.2%
Infarct volume (%) [1]: 23.9 ± 4.3 %
Observed Neurological Deficits Mean ± SEM [1]: 1.3 ± 0.2
Observed Neurological Deficits, score 0 (number of animals) [1]: 0
Observed Neurological Deficits, score 1 (number of animals) [1]: 6
Observed Neurological Deficits, score 2 (number of animals) [1]: 2
Observed Neurological Deficits, score 3 (number of animals) [1]: 0
n (dead/total): dead/total [1]: 8 (1/9)
% Infarct area in brain slice # 1 [6]: 12.8 ± 3.3%
% Infarct area in brain slice # 2 [6]: 54.0 ± 4.1%
% Infarct area in brain slice # 3 [6]: 51.4 ± 3.1%
% Infarct area in brain slice # 4 [6]: 26.2 ± 6.7%
% Infarct area in brain slice # 5 [6]: −1.0 ± 0.8%
Hemispheric swelling (%) [6]: 7.4 ± 1.0 %
Infarct volume (%) [6]: 34.5 ± 3.7%
Observed Neurological Deficits Mean ± SEM [6]: 1.3 ± 0.2
Observed Neurological Deficits, score 0 (number of animals) [6]: 0
Observed Neurological Deficits, score 1 (number of animals) [6]: 4
Observed Neurological Deficits, score 2 (number of animals) [6]: 2
Observed Neurological Deficits, score 3 (number of animals) [6]: 0
n (dead/total): dead/total [6]: 6 (1/7)
% Infarct area in brain slice # 1 [3]: 11.7 ± 3.3%
% Infarct area in brain slice # 2 [3]: 38.0 ± 6.8 %
% Infarct area in brain slice # 3 [3]: 32.5 ± 6.6 %
% Infarct area in brain slice # 4 [3]: 16.8 ± 6.0%
% Infarct area in brain slice # 5 [3]: 0.5 ± 0.4%
Hemispheric swelling (%) [3]: 5.0 ± 1.2%
Infarct volume (%) [3]: 23.5 ± 4.4 %
Observed Neurological Deficits Mean ± SEM [3]: 1.3 ± 0.2
Observed Neurological Deficits, score 0 (number of animals) [3]: 0
Observed Neurological Deficits, score 1 (number of animals) [3]: 6
Observed Neurological Deficits, score 2 (number of animals) [3]: 2
Observed Neurological Deficits, score 3 (number of animals) [3]: 0
n (dead/total): dead/total [3]: 8 (1/9)
infarct area in brain slices (in words) (5 minutes after reperfusion, FIG. 5c): reduction in infarct area of brain slices #4
infarct size and hemispheric swelling (in words) (5 minutes after reperfusion, FIG. 5d): reduced infarct size and hemispheric swelling
infarct area (in words) (6 hours after ischemia): improvement in the infarct area
infarct volume (in words) (6 hours after ischemia): decreases infarct volume
neurological deficits induced by ischemia (in words) (administered 5 minutes after reperfusion): reduced neurological deficits induced by ischemia
neurological deficits (in words): reduced neurological deficits
